Laboratory results reported in US20250099405A1, “COMPOSITIONS, METHODS, AND DEVELOPMENT OF ARID4B INHIBITORS” (University of Kentucky Research Foundation, priority 2022, published 2025).

Target: T1, Flag-ARID4A (Homo sapiens, UniProt P29374)
T1 construct: expressed in transfected cells
T1 sequence (P29374 1-1257): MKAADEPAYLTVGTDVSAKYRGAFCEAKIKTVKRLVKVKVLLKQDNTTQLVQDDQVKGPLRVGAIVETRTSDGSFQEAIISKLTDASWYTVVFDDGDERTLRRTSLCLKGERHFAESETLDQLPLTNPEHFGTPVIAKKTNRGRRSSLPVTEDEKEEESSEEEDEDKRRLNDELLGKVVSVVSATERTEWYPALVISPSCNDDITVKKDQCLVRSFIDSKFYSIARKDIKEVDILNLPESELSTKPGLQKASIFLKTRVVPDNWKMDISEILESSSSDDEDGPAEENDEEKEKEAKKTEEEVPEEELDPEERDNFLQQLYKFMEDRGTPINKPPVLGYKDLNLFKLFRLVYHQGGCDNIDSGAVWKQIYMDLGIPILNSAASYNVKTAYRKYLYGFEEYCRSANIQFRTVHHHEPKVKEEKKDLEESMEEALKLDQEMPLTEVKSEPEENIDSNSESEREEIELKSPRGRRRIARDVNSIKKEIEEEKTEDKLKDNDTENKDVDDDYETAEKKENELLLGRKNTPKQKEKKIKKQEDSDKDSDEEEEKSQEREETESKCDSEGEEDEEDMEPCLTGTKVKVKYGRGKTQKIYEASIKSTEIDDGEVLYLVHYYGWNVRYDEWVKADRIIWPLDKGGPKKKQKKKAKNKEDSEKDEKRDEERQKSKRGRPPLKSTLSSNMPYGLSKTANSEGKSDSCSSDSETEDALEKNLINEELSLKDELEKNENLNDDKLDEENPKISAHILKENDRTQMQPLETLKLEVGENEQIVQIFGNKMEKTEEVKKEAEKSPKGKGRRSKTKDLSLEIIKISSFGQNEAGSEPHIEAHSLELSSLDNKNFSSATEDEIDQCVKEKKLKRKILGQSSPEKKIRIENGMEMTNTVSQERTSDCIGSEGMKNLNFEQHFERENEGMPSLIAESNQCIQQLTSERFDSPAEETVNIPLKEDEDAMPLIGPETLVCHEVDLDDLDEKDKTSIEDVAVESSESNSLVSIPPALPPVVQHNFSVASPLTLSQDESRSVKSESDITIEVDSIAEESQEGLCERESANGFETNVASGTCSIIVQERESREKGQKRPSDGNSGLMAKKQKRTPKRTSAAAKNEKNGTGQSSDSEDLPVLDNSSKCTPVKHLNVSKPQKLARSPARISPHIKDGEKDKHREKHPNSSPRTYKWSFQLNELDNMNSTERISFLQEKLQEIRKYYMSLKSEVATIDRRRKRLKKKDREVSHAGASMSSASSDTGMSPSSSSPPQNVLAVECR
Test: CETSA in cells expressing Flag-ARID4A
Type: cell-based
Conditions: 10 μM, 2 h
Description: (B-C) show cells expressing HA-ARID4B (C) or HA-ARID4BIC (D) treated or not with ARD150 (10 μM) for 2 h were used for CESTA. […] (D-E) show cells expressing HA-ARID4B (D) or Flag-ARID4A (E) treated or not with RWR-18 (10 μM) for 2 h were used for CESTA. […] Data are means±SEM from three experiments. *P<0.05, **P<0.01, ns, not significant.
Using CETSA (cellular thermal shift assay) to examine whether ARD150 or RWR-18 binds to ARID4B, MCF7 cells treated or not with ARD150 or RWR-18 for 2 h were collected, followed by heating at 46, 49, 52, 55, and 58° C. to denature and precipitate ARID4B protein, cell lysis, removal of cell debris and aggregates by centrifugation, and finally detection of remaining thermostable ARID4B protein by western blot. The ARID4B aggregation temperatures without ARD150 were determined to be 49-52° C., but shifted to 52-55° C. after treatment with ARD150 and even more so with RWR-18 (FIG. 15A-D). To determine whether ARD150 and RWR-18 targets the chromodomain of ARID4B, CESTA was performed using chromodomain deletion mutant (ARID4BAC). HEK-293T cells expressing HA-ARID4B or HA-ARID4BAC were treated or not with ARD150 (10 μM) for 2 h and processed for CESTA.

O=C(COc1ccc(OCc2ccccc2)cc1)NCCCN1CCOCC1 [RWR-18]
shift of aggregation temperatures of Flag-ARID4A: no shift was observed
